Measurements: patent publication US10335409B2 (priority 2012, dated 2019)

Key:
[1] = target: HCV NS3 protease domain genotype 3a (Hepatitis C virus genotype 3a, UniProt Q81258); test: Ki determination, NS3 protease genotype 3a (fluorogenic depsipeptide substrate); format: biochemical; settings: 200 pM enzyme, NS4A peptide
Summary of the method: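 The NS3 protease domain (aa 1-181) with 20 μM NS4A peptide was used at 50 pM with 4 μM substrate (1b) or at 200 pM with 2 μM substrate (3a). Inhibitors (100 nM-5 pM) were pre-incubated 1 h at room temperature in HEPES/glycerol/DTT buffer with 10% DMSO. Steady-state rates (90-120 min) gave Ki via the Morrison equation, corrected for active enzyme and [S]/Km.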

[2] = test system: genotype 1a NS3/4a protease inhibitor resistant variant R155K transient HCV replicon in Huh-7-derived cells; test: Transient-transfected HCV replicon EC50, genotype 1a R155K; format: cell-based, hepatitis C virus; settings: Hepatitis C virus, 72 h, read-out: EC50 1A R155K, transient-transfected replicon genotype 1a R155K resistant variant, 72 h
[3] = test system: genotype 3a (S52) wild type transient HCV replicon in Huh-7-derived cells; test: Transient-transfected HCV replicon EC50, genotype 3a wild type; format: cell-based, hepatitis C virus; settings: Hepatitis C virus; transient-transfected replicon genotype 3a wild type, 72 h; read-out: EC50 3A WT
[4] = target: HCV NS3 protease domain genotype 1b (Hepatitis C virus genotype 1b (isolate Con1), UniProt Q9WMX2, E1202G); test: Ki determination, NS3 protease genotype 1b (fluorogenic depsipeptide substrate); format: biochemical; settings: 50 pM enzyme, NS4A peptide
Chain of HCV NS3 protease domain genotype 1b (Q9WMX2 1027-1208 E1202G): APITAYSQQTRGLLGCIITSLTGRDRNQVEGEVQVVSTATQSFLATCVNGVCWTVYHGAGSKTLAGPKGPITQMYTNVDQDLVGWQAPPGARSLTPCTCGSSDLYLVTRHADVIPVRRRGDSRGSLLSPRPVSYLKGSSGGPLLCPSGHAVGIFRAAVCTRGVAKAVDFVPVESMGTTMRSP
Experimental: Purified NS3 protease domain (amino acids 1-181) of the genotype 1b and 3a virus were generated as above.
Reactions were run at room temperature in buffer consisting of 50 mM HEPES, 40% glycerol, 0.05% Triton X-100, 10 mM DTT, and 10% DMSO. The final assay solutions contained 50 pM NS3 genotype 1 b protease or 200 pM genotype 3a protease, 20 μM NS4A peptide, and 4 μM substrate (genotype 1b) or 2 μM substrate (genotype 3a). Inhibitor concentrations varied from 100 nM to 5 pM in 3-fold dilutions, and no-inhibitor controls were included.
Compound dilutions were made in DMSO at 20× final concentration. Reaction mixtures were prepared in 96-well assay plates. A solution of enzyme and NS4A peptide in assay buffer (25 μL volume with both reagents at 4× final concentration) was mixed with 45 μL assay buffer and 5 μL of either inhibitor or DMSO, and pre-incubated at room temperature for 1 hour. The reaction was started by addition of 25 μL substrate solution at 4× final concentration. Plates were mixed vigorously for 5-10 seconds and reactions were allowed to proceed for 90 minutes, fluorescence was measured every 30 s between 90 and 120 minutes reaction time using a Tecan InfiniTe M1000 or PerkinElmer Envision multimode plate reader with an excitation wavelength of 340 nm and an emission wavelength of 490 nm.
To determine the Ki, rates were plotted as a function of inhibitor concentration, and the data were fit with equation 1 (Morrison, J. F., Biochimica et Biophysica Acta 1969, 185, 269-286) to calculate Ki^app using GraphPad Prism 5. […] Ki was calculated from Ki^app/(1+[[S]/Km]).

[5] = test system: genotype 1a (H77) wild type transient HCV replicon in Huh-7-derived cells; test: Transient-transfected HCV replicon EC50, genotype 1a wild type; format: cell-based, hepatitis C virus; settings: Hepatitis C virus, 72 h, transient-transfected replicon genotype 1a wild type, read-out: EC50 1A WT
[6] = test system: genotype 4a (ED43) stable HCV replicon in Huh-7-derived cells; test: Stable subgenomic HCV replicon EC50, genotype 4a (Renilla luciferase); format: cell-based, hepatitis C virus; settings: Hepatitis C virus, 72 h, read-out: EC50 4A RLUC
Summary of the method: (§1)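 Compounds, three-fold diluted, were applied to Huh-7-derived cells harbouring luciferase replicons (genotype 1a H77, 1b Con1, 2a JFH-1, 4a ED43, with strain-specific adaptive mutations). Seventy-two hours later, intracellular replication was gauged by Renilla luciferase activity and EC50 derived by regression.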

[7] = test system: genotype 1b (Con1) wild type transient HCV replicon in Huh-7-derived cells; test: Transient-transfected HCV replicon EC50, genotype 1b wild type; format: cell-based, hepatitis C virus; settings: Hepatitis C virus, 72 h, transient-transfected replicon genotype 1b wild type, read-out: EC50 1B WT
[8] = test system: genotype 2a (JFH-1) stable HCV replicon in Huh-7-derived cells; test: Stable subgenomic HCV replicon EC50, genotype 2a (Renilla luciferase); format: cell-based, hepatitis C virus; settings: Hepatitis C virus, stable replicon genotype 2a, 72 h, read-out: EC50 2A RLUC
Summary of the method: as §1

[9] = test system: genotype 1b NS3/4a protease inhibitor resistant variant D168A transient HCV replicon in Huh-7-derived cells; test: Transient-transfected HCV replicon EC50, genotype 1b D168A; format: cell-based, hepatitis C virus; settings: Hepatitis C virus, 72 h, read-out: EC50 1B D168A, transient-transfected replicon genotype 1b D168A resistant variant, 72 h
[10] = test system: genotype 1b (Con1) stable HCV replicon in Huh-7-derived cells; test: Stable subgenomic HCV replicon EC50, genotype 1b (Renilla luciferase); format: cell-based, hepatitis C virus; settings: Hepatitis C virus, stable replicon genotype 1b, 72 h, read-out: EC50 1B RLUC
Summary of the method: as §1

[11] = test system: genotype 3a (S52) stable HCV replicon in Huh-7-derived cells; test: Stable subgenomic HCV replicon EC50, genotype 3a (Renilla luciferase); format: cell-based, hepatitis C virus; settings: Hepatitis C virus, 72 h, read-out: EC50 3A RLUC
[12] = test system: genotype 1a (H77) stable HCV replicon in Huh-7-derived cells; test: Stable subgenomic HCV replicon EC50, genotype 1a (Renilla luciferase); format: cell-based, hepatitis C virus; settings: Hepatitis C virus, stable replicon genotype 1a, 72 h, read-out: EC50 1A RLUC
Summary of the method: as §1

Chain of HCV NS3 protease domain genotype 3a (Q81258 whole entry, looked up, the tested form may be a part): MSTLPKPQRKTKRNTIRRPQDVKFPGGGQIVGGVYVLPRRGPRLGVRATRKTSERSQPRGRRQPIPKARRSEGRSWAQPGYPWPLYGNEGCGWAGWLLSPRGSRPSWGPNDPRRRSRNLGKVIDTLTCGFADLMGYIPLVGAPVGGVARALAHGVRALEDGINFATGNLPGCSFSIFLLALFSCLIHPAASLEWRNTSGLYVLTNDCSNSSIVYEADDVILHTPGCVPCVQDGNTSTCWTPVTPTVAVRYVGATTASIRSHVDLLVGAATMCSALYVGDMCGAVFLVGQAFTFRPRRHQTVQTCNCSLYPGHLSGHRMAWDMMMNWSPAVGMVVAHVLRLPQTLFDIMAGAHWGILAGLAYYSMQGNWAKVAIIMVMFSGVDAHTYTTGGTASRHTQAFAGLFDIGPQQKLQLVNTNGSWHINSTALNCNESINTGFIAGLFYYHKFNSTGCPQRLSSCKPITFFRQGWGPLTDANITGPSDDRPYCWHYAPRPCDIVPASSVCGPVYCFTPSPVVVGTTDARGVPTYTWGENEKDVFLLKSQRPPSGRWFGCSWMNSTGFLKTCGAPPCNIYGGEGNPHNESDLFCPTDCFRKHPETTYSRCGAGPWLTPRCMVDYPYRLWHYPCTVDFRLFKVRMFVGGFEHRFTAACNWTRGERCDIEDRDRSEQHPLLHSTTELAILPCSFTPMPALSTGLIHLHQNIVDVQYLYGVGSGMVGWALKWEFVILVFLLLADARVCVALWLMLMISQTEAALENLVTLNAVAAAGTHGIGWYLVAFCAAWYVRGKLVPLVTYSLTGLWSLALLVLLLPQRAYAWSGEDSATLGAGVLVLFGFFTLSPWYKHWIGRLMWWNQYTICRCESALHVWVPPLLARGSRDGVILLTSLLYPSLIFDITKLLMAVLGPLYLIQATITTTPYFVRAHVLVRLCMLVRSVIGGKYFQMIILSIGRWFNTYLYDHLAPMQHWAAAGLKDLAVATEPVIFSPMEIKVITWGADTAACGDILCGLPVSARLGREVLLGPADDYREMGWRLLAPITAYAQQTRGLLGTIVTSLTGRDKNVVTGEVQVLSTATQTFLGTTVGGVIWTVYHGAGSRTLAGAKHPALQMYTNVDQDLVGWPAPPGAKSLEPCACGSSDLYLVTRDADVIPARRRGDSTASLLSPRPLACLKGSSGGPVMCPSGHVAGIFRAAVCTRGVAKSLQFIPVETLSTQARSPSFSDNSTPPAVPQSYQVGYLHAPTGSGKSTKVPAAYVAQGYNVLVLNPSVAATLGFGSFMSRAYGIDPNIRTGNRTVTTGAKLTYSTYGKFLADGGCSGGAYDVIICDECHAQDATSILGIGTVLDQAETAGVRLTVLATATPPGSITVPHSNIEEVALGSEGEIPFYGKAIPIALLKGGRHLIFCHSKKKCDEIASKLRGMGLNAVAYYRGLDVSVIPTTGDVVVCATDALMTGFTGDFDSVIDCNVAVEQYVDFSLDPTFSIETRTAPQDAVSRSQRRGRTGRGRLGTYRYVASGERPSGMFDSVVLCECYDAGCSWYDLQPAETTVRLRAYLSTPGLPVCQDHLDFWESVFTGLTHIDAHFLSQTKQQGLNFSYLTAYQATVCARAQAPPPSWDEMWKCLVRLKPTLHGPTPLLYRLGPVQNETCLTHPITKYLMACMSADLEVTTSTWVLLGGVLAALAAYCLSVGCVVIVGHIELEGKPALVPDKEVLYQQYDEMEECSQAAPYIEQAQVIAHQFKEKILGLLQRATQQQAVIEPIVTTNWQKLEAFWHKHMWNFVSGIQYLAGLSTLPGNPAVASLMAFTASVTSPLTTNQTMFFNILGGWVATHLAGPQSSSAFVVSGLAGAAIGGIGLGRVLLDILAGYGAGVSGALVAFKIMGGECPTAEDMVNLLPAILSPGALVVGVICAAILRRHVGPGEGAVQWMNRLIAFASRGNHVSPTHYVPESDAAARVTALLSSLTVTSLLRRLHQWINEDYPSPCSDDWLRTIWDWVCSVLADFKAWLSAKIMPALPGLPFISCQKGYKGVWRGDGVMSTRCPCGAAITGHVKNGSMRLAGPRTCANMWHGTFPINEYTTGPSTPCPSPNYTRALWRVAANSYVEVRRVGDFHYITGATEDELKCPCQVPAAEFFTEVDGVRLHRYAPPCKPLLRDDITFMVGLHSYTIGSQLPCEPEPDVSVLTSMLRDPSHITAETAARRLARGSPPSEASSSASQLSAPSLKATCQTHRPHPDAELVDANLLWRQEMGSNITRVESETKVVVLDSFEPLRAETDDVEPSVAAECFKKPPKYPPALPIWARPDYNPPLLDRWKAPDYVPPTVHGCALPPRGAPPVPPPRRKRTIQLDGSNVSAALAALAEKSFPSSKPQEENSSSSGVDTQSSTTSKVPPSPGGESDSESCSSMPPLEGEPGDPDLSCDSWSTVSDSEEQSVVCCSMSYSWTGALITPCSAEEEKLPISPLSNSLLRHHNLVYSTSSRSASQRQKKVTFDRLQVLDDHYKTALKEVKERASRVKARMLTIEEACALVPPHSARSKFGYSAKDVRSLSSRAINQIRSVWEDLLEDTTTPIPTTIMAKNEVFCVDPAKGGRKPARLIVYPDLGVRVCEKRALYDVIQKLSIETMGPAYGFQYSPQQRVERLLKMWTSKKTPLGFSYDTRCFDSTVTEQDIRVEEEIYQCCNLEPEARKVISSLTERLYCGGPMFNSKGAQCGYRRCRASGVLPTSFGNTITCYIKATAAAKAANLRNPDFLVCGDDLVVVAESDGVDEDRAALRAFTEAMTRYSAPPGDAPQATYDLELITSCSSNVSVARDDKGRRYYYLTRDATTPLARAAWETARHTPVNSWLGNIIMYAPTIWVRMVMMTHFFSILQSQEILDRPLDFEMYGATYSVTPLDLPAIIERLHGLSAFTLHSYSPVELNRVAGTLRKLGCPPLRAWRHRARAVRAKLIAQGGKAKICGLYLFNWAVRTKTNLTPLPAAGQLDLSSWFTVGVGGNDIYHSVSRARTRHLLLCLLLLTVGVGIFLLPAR

Compound | Ki [1] | EC50 [2] | EC50 [3] | Ki [4] | EC50 [5] | EC50 [6] | EC50 [7] | EC50 [8] | EC50 [9] | EC50 [10] | EC50 [11] | EC50 [12]
CC[C@@H]1[C@@H]2CN(C(=O)[C@H](C(C)(C)C)NC(=O)O[C@@H]3C[C@H]3CCCCCc3nc4ccc(OCC(F)(F)F)cc4nc3O2)[C@@H]1C(=O)N[C@]1(C(=O)NS(=O)(=O)C2(C)CC2)C[C@H]1C(F)F [Example 55, (1aR,5S,8S,9S,10R,22aR)-5-tert-butyl-N-[(1R,2R)-2-(difluoromethyl)-1-{[(1-methylcyclopropyl)sulfonyl]carbamoyl}cyclopropyl]-9-ethyl-3,6-dioxo-14-(2,2,2-trifluoroethoxy)-1,1a,3,4,5,6,9,10,18,19,20,21,22,22a-tetradecahydro-8H-7,10-methanocyclopropa[18,19][1,10,3,6]dioxadiazacyclononadecino[11,12-b]quinoxaline-8-carboxamide] | 0.2 nM | 32 nM | 71 nM | 0.09 nM | 8 nM | 3.5 nM | 2.3 nM | 12 nM | 53 nM | 3.8 nM | 140 nM | 13 nM
CC[C@@H]1[C@@H]2CN(C(=O)[C@H](C(C)(C)C)NC(=O)O[C@@H]3C[C@@H]4C[C@@H]4[C@H]3CCCCC(F)(F)c3nc4ccc(OC)cc4nc3O2)[C@@H]1C(=O)N[C@]1(C(=O)NS(=O)(=O)C2CC2)C[C@H]1C(F)F [Example 59, (1aS,2aR,6S,9S,10 S,11R,23aR,23bS)-6-tert-butyl-N-[(1R,2R)-1-[(cyclopropylsulfonyl)carbamoyl]-2-(difluoromethyl)cyclopropyl]-10-ethyl-19,19-difluoro-15-methoxy-4,7-dioxo-1a,2,2a,4,5,6,7,10,11,19,20,21,22,23,23a,23b-hexadecahydro-1H,9H-8,11-methanocyclopropa[4′,5′]cyclopenta[1′,2′:18,19][1,10,3,6]dioxadiazacyclononadecino[11,12-b]quinoxaline-9-carboxamide] | 0.06 nM | 6.8 nM | 15 nM | 0.04 nM | 10 nM | 5.6 nM | 6.8 nM | 13 nM | 6.4 nM | 11 nM | 20 nM | 5.4 nM
CCC[C@@H]1[C@@H]2CN(C(=O)[C@H](C(C)(C)C)NC(=O)O[C@@H]3C[C@H]3CCCCC(F)(F)c3nc4ccc(OC)cc4nc3O2)[C@@H]1C(=O)N[C@]1(C(=O)NS(=O)(=O)C2CC2)C[C@H]1C(F)F [Example 60, (1aR,5S,8S,9S,10R,22aR)-5-tert-butyl-N-[(1R,2R)-1-[(cyclopropylsulfonyl)carbamoyl]-2-(difluoromethyl)cyclopropyl]-18,18-difluoro-14-methoxy-3,6-dioxo-9-propyl-1,1a,3,4,5,6,9,10,18,19,20,21,22,22a-tetradecahydro-8H-7,10-methanocyclopropa[18,19][1,10,3,6]dioxadiazacyclononadecino[11,12-b]quinoxaline-8-carboxamide] | 0.08 nM | 8.6 nM | 9.8 nM | 0.04 nM | 5.8 nM | 5.4 nM | 2.3 nM | 7.7 nM | 15 nM | 4.8 nM | 45 nM | 11 nM
COc1ccc2nc3c(nc2c1)O[C@H]1CN(C(=O)[C@H](C(C)(C)C)NC(=O)O[C@@H]2C[C@@H]4C[C@@H]4[C@H]2CCCCC3(F)F)[C@H](C(=O)N[C@]2(C(=O)NS(=O)(=O)C3CC3)C[C@H]2C(F)F)[C@@H]1C [Example 62, (1aS,2aR,6S,9S,10S,11R,23aR,23bS)-6-tert-butyl-N-[(1R,2R)-1-[(cyclopropylsulfonyl)carbamoyl]-2-(difluoromethyl)cyclopropyl]-19,19-difluoro-15-methoxy-10-methyl-4,7-dioxo-1a,2,2a,4,5,6,7,10,11,19,20,21,22,23,23a,23b-hexadecahydro-1H,9H-8,11-methanocyclopropa[4′,5′]cyclopenta[1′,2′:18,19][1,10,3,6]dioxadiazacyclononadecino[11,12-b]quinoxaline-9-carboxamide] | 0.03 nM | 2.7 nM | 4 nM | 0.04 nM | 3.5 nM | 2.4 nM | 1.5 nM | 5 nM | 2 nM | 3 nM | 8.5 nM | 3.4 nM
CC[C@@H]1[C@@H]2CN(C(=O)[C@H](C(C)(C)C)NC(=O)O[C@@H]3C[C@@H]4C[C@@H]4[C@H]3CCCCCc3nc4ccc(OC)cc4nc3O2)[C@@H]1C(=O)N[C@]1(C(=O)NS(=O)(=O)C2CC2)C[C@H]1C(F)F [Example 70, (1aS,2aR,6S,9S,10S,11R,23aR,23bS)-6-tert-butyl-N-[(1R,2R)-1-[(cyclopropylsulfonyl)carbamoyl]-2-(difluoromethyl)cyclopropyl]-10-ethyl-15-methoxy-4,7-dioxo-1a,2,2a,4,5,6,7,10,11,19,20,21,22,23,23a,23b-hexadecahydro-1H,9H-8,11-methanocyclopropa[4′,5′]cyclopenta[1′,2′:18,19][1,10,3,6]dioxadiazacyclononadecino[11,12-b]quinoxaline-9-carboxamide] | 0.05 nM | 5.4 nM | 17 nM | 0.05 nM | 7.7 nM | 6.4 nM | 6.1 nM | 15 nM | 7.3 nM | 8.5 nM | 41 nM | 8.4 nM
C[C@@H]1[C@@H]2CN(C(=O)[C@H](C(C)(C)C)NC(=O)O[C@@H]3C[C@@H]4C[C@@H]4[C@H]3CCCCCc3nc4ccc(Cl)cc4nc3O2)[C@@H]1C(=O)N[C@]1(C(=O)NS(=O)(=O)C2CC2)C[C@H]1C(F)F [Example 79, (1aS,2aR,6S,9S,10S,11R,23aR,23bS)-6-tert-butyl-15-chloro-N-[(1R,2R)-1-[(cyclopropylsulfonyl)carbamoyl]-2-(difluoromethyl)cyclopropyl]-10-methyl-4,7-dioxo-1a,2,2a,4,5,6,7,10,11,19,20,21,22,23,23a,23b-hexadecahydro-1H,9H-8,11-methanocyclopropa[4′,5′]cyclopenta[1′,2′:18,19][1,10,3,6]dioxadiazacyclononadecino[11,12-b]quinoxaline-9-carboxamide] | 0.06 nM | 7.1 nM | 9.2 nM | 0.06 nM | 6.1 nM | 5.6 nM | 3 nM | 4.1 nM | 11 nM | 5.8 nM | 71 nM | 7 nM
